Measured values reported in patent publication US20140135281A1, “METHODS FOR C[…] MITES” (SYNGENTA PARTICIPATIONS AG, priority 2011, published 2014).

Test system: Varroa destructor
Experiment: Contact test of Varroa mite adults on Potter-tower-treated Petri dishes, mortality
Format: in vivo
Details: concentration of formulation (WP75) 67 microgramme; in 2 days; adult mites, 4 dishes of 5, spray deposit contact
Description: Varroa mites came from bee colonies provided by a beekeeper. The mite population is kept in a dedicated apiary. For screening needs adults are collected on the same day as the beginning of experiment, either in beehive cells containing brood of worker bees or drones, or directly on bees emerging during collection.
Bee nymphs needed to feed adults of Varroa mites during experiments are choosen within the frames from which Varroa is also collected. They are collected at the stage of nymph with white or pink coloured eyes according methology described by Rembold et Kremer (Characterization of postembryonic developmental stages of the female castes of the honey bee, Apis mellifera L.. Apidologie 11: 29-38).
3 cm diameter Petri dishes were used as confinement material of Varroa mites during experiments. Covers with wire mesh were put on the top of each Petri dish in order to avoid the mites to run away but also to keep favorable humidity for the bee nymph.
Applications were done with a Potter tower (described in “An improved apparatus for applying direct sprays and surface films with data on the electrostatic charge on atomize spray fluids.” Annal of Applied Biology, 39 : 1-28.). The active substance was apllied to achieve uniform distribution on the Petri dish (1.5 mg±0.2 mg/cm^2). A check with distilled water was also tested. […]

## Nc1nc(N)nc(NC2CC2)n1 [cyromazine]
  % mortality of Varroa: 80% in 2 days
